{"source": "paper PMC11793105", "about": "“A kalihinol analog disrupts apicoplast function and vesicular trafficking in P. falciparum malaria” (Science (New York, N.Y.), 2024)", "key": {"P. falciparum cultures": {"system": "P. falciparum cultures", "experiment": "Exponential killing rate at IC80", "type": "cell-based, Plasmodium falciparum", "settings": "triplicate"}, "[1]": {"system": "P. falciparum 3D7 parasites", "experiment": "Isopentenyl pyrophosphate (IPP) rescue assay", "type": "cell-based, Plasmodium falciparum", "settings": "drug at IC80 for one IEC before IPP (200 μM)", "excerpt": "Fig. 2. […] Nuclei are stained with 4’,6-diamidino-2-phenylindole (DAPI; blue). […] (B) Dose-dependent interactions between MED6-189 (blue) and various antimalarials with known mechanisms of action (red). […] The regression line represents a nonlinear regression (variable slope with four parameters), with significant differences considered if P < 0.05. […] Isobologram curves are expected to be parallel to the diagonal for additive drug pairs, concave for synergistic drug pairs, and convex for antagonistic drug pairs. […] The analysis was performed using a two-way ANOVA, n = 3, with P < 0.05 significance.\nIPP is a product of the MEP/DOXP pathway, and its supplementation reduces susceptibility to MEP inhibitors. […] Parasites were drugged at 80% inhibitory concentrations (IC80) for one IEC before IPP (200 μM) supplementation."}}, "data": [{"smiles": "O=CN(O)CCCP(=O)(O)O", "note": "[fosmidomycin, reference compound]", "values": [{"measurement": "Exponential killing rate k = (1/t)* log10(N0/Nt)", "setting": "P. falciparum cultures; at IC80, 48 HPS", "result": 0.007019}, {"measurement": "Exponential killing rate k = (1/t)* log10(N0/Nt)", "setting": "P. falciparum cultures; at IC80, 72 HPS", "result": 0.01081}, {"measurement": "Exponential killing rate k = (1/t)* log10(N0/Nt)", "setting": "P. falciparum cultures; at IC80, 100 HPS", "result": 0.008797}, {"measurement": "rescue of parasites by IPP supplementation", "setting": "[1]", "result": "survived the second IEC and initiated a third cycle"}]}]}
